Reference: the CheMixHub viscosity set

Assay: xn = mol fraction of the nth substance listed

BrC(Br)(Br)Br + c1ccccc1
298.15 K, 101 kPa
Conditions | viscosity [mPa·s]
x1 = 0.1 | 0.8303
x1 = 0.2 | 1.122
x1 = 0.3 | 1.464
x1 = 0.4 | 1.839
x1 = 0.5 | 2.235
x1 = 0.6 | 2.636
x1 = 0.7 | 3.026
x1 = 0.8 | 3.391
x1 = 0.9 | 3.716

CCC1CCCCC1 + CCCCCCCC(=O)OCC
viscosity [mPa·s], 100 kPa
Conditions | x1 = 0.1001 | x1 = 0.2 | x1 = 0.3 | x1 = 0.3998 | x1 = 0.5 | x1 = 0.5997 | x1 = 0.7 | x1 = 0.8001 | x1 = 0.9
293.15 K | 1.446 | 1.359 | 1.278 | 1.201 | 1.128 | 1.058 | 0.992 | 0.929 | 0.877
298.15 K | 1.328 | 1.254 | 1.182 | 1.113 | 1.046 | 0.983 | 0.924 | 0.869 | 0.821
303.15 K | 1.224 | 1.156 | 1.09 | 1.03 | 0.971 | 0.916 | 0.862 | 0.812 | 0.768
308.15 K | 1.132 | 1.071 | 1.012 | 0.957 | 0.903 | 0.854 | 0.808 | 0.762 | 0.72
313.15 K | 1.039 | 0.985 | 0.932 | 0.882 | 0.835 | 0.792 | 0.749 | 0.709 | 0.674
318.15 K | 0.977 | 0.927 | 0.879 | 0.833 | 0.79 | 0.748 | 0.71 | 0.672 | 0.64
323.15 K | 0.902 | 0.856 | 0.812 | 0.771 | 0.733 | 0.696 | 0.661 | 0.625 | 0.595

Cc1cccc2ccccc12 + CC1CCCCC1
viscosity [mPa·s], 100 kPa
Conditions | x1 = 0.125 | x1 = 0.25 | x1 = 0.375 | x1 = 0.5 | x1 = 0.625 | x1 = 0.75 | x1 = 0.875
303.15 K | 0.715 | 0.829 | 0.972 | 1.13 | 1.37 | 1.67 | 2.06
323.15 K | 0.559 | 0.64 | 0.733 | 0.853 | 1.01 | 1.2 | 1.44

CC(N)=O + c1ccncc1
298.15 K, 101 kPa
Conditions | viscosity [mPa·s]
x1 = 0.0512 | 0.987
x1 = 0.0742 | 1.005
x1 = 0.111 | 1.088
x1 = 0.2065 | 1.381

CCCCCCCCCO + c1ccccc1
viscosity [mPa·s], 100 kPa
Conditions | x2 = 0.0841 | x2 = 0.1721 | x2 = 0.2502 | x2 = 0.3634 | x2 = 0.4529 | x2 = 0.5631 | x2 = 0.6508 | x2 = 0.7569 | x2 = 0.8448 | x2 = 0.9503
293.15 K | 9.518 | 7.891 | 6.648 | 5.055 | 3.95 | 2.851 | 2.158 | 1.469 | 1.089 | 0.766
303.15 K | 6.477 | 5.231 | 4.302 | 3.268 | 2.618 | 1.931 | 1.474 | 1.067 | 0.824 | 0.628
313.15 K | 4.537 | 3.665 | 3.011 | 2.228 | 1.762 | 1.327 | 1.045 | 0.807 | 0.675 | 0.542
323.15 K | 3.323 | 2.677 | 2.203 | 1.656 | 1.318 | 1.005 | 0.817 | 0.662 | 0.56 | 0.474

CC(=O)N1CCOCC1 + CCCO
viscosity [mPa·s], 101 kPa
Conditions | 293.15 K | 303.15 K | 313.15 K | 323.15 K
x1 = 0.0542 | 3.211 | 2.607 | 2.089 | 1.678
x1 = 0.1279 | 4.268 | 3.591 | 2.958 | 2.472
x1 = 0.2156 | 5.382 | 4.614 | 3.842 | 3.268
x1 = 0.2811 | 6.079 | 5.246 | 4.369 | 3.728
x1 = 0.3166 | 6.397 | 5.529 | 4.598 | 3.925
x1 = 0.3902 | 6.922 | 5.978 | 4.928 | 4.183
x1 = 0.4533 | 7.294 | 6.294 | 5.142 | 4.331
x1 = 0.5022 | 7.478 | 6.414 | 5.189 | 4.331
x1 = 0.5437 | 7.679 | 6.578 | 5.289 | 4.388
x1 = 0.5983 | 7.857 | 6.703 | 5.329 | 4.375
x1 = 0.6341 | 7.889 | 6.699 | 5.267 | 4.277
x1 = 0.6883 | 8.018 | 6.776 | 5.259 | 4.214
x1 = 0.7442 | 8.069 | 6.769 | 5.161 | 4.062
x1 = 0.7912 | 8.099 | 6.748 | 5.069 | 3.922
x1 = 0.8542 | 8.178 | 6.766 | 4.986 | 3.776
x1 = 0.9165 | 8.328 | 6.851 | 4.972 | 3.702
x1 = 0.9776 | 8.508 | 7.001 | 5.093 | 3.823

CC(=O)N1CCOCC1 + CCCCO
viscosity [mPa·s], 101 kPa
Conditions | 293.15 K | 303.15 K | 313.15 K | 323.15 K
x1 = 0.0555 | 4.367 | 3.576 | 2.739 | 1.957
x1 = 0.1321 | 5.668 | 4.813 | 3.879 | 3.051
x1 = 0.2165 | 6.805 | 5.881 | 5.042 | 4.16
x1 = 0.2844 | 7.59 | 6.613 | 5.581 | 4.657
x1 = 0.3126 | 7.757 | 6.756 | 5.6 | 4.662
x1 = 0.4042 | 8.369 | 7.294 | 6.023 | 5.03
x1 = 0.4673 | 8.697 | 7.57 | 6.22 | 5.191
x1 = 0.5033 | 8.878 | 7.734 | 6.31 | 5.257
x1 = 0.5562 | 9.001 | 7.801 | 6.341 | 5.256
x1 = 0.6237 | 9.088 | 7.833 | 6.29 | 5.164
x1 = 0.6431 | 8.989 | 7.719 | 6.152 | 5.014
x1 = 0.6903 | 9.041 | 7.732 | 6.105 | 4.937
x1 = 0.7439 | 8.864 | 7.512 | 5.819 | 4.62
x1 = 0.7911 | 8.713 | 7.322 | 5.569 | 4.342
x1 = 0.8624 | 8.88 | 7.431 | 5.591 | 4.32
x1 = 0.9222 | 8.663 | 7.164 | 5.249 | 3.943
x1 = 0.9785 | 8.737 | 7.193 | 5.209 | 3.868

O=C([O-])CC(O)(CC(=O)[O-])C(=O)[O-].[Li+].[Li+].[Li+] + O
viscosity [mPa·s], 101 kPa
Conditions | 298.15 K | 308.15 K | 318.15 K
x1 = 0.004 | 1.118 | 0.9013 | 0.7487
x1 = 0.007 | 1.39 | 1.112 | 0.9146
x1 = 0.01 | 1.784 | 1.415 | 1.155

CCCCCCCCCO + CN(C)C=O
Conditions | viscosity [mPa·s]
308.15 K, 101.3 kPa, x2 = 0.2201 | 2.965

CCCCCCCCCO + CCCCO
viscosity [mPa·s]
Conditions | 293.15 K | 298.15 K | 308.15 K | 318.15 K
101 kPa, x2 = 0.05 | – | 8.644 | 6.182 | 4.486
101 kPa, x2 = 0.1 | – | 8.219 | 5.878 | 4.303
101 kPa, x2 = 0.15 | – | 7.816 | 5.598 | 4.121
101 kPa, x2 = 0.2 | – | 7.431 | 5.336 | 3.941
101 kPa, x2 = 0.25 | – | 7.062 | 5.089 | 3.764
101 kPa, x2 = 0.3 | – | 6.704 | 4.852 | 3.589
101 kPa, x2 = 0.35 | – | 6.356 | 4.623 | 3.418
101 kPa, x2 = 0.4 | – | 6.016 | 4.398 | 3.251
101 kPa, x2 = 0.45 | – | 5.681 | 4.177 | 3.088
101 kPa, x2 = 0.5 | – | 5.353 | 3.957 | 2.929
101 kPa, x2 = 0.55 | – | 5.029 | 3.738 | 2.774
101 kPa, x2 = 0.6 | – | 4.71 | 3.52 | 2.623
101 kPa, x2 = 0.65 | – | 4.397 | 3.303 | 2.477
101 kPa, x2 = 0.7 | – | 4.091 | 3.088 | 2.335
101 kPa, x2 = 0.75 | – | 3.793 | 2.877 | 2.198
101 kPa, x2 = 0.8 | – | 3.506 | 2.672 | 2.064
101 kPa, x2 = 0.85 | – | 3.234 | 2.476 | 1.933
101 kPa, x2 = 0.9 | – | 2.977 | 2.292 | 1.806
101 kPa, x2 = 0.95 | – | 2.742 | 2.125 | 1.681
101.33 kPa, x2 = 0.1608 | 9.868 | – | – | –
101.33 kPa, x2 = 0.2186 | – | 7.719 | – | –
101.33 kPa, x2 = 0.3832 | 7.621 | – | – | –
101.33 kPa, x2 = 0.4166 | – | 6.168 | – | –
101.33 kPa, x2 = 0.5129 | – | 5.48 | – | –
101.33 kPa, x2 = 0.5372 | 6.237 | – | – | –
101.33 kPa, x2 = 0.6368 | – | 4.634 | – | –
101.33 kPa, x2 = 0.6674 | 5.169 | – | – | –
101.33 kPa, x2 = 0.7995 | 4.296 | – | – | –
101.33 kPa, x2 = 0.8253 | – | 3.486 | – | –
101.33 kPa, x2 = 0.8991 | 3.529 | – | – | –
101.33 kPa, x2 = 0.9103 | – | 3.019 | – | –

CCC1CCCCC1 + CCCCCO
viscosity [mPa·s], 100 kPa
Conditions | x2 = 0.1003 | x2 = 0.2013 | x2 = 0.3005 | x2 = 0.4001 | x2 = 0.5004 | x2 = 0.5995 | x2 = 0.7009 | x2 = 0.8003 | x2 = 0.9007
293.15 K | 0.91 | 0.99 | 1.108 | 1.248 | 1.489 | 1.788 | 2.169 | 2.681 | 3.292
298.15 K | 0.845 | 0.915 | 1.024 | 1.177 | 1.339 | 1.613 | 1.948 | 2.339 | 2.862
303.15 K | 0.785 | 0.848 | 0.943 | 1.071 | 1.21 | 1.425 | 1.724 | 2.056 | 2.495
308.15 K | 0.728 | 0.778 | 0.855 | 0.942 | 1.087 | 1.263 | 1.501 | 1.796 | 2.166
313.15 K | 0.682 | 0.73 | 0.801 | 0.882 | 0.998 | 1.156 | 1.337 | 1.602 | 1.92
318.15 K | 0.651 | 0.693 | 0.752 | 0.834 | 0.929 | 1.061 | 1.246 | 1.454 | 1.723
323.15 K | 0.61 | 0.647 | 0.697 | 0.773 | 0.849 | 0.959 | 1.115 | 1.294 | 1.529

CCOC(=O)c1cccc(O)c1 + CCCCCOC(C)=O
Conditions | viscosity [mPa·s]
298.15 K, 101 kPa, x2 = 0.5 | 1.587

CC1CCCCC1=O (centres undefined) + CN(C)C=O
viscosity [mPa·s], 100 kPa
Conditions | x1 = 0.0825 | x1 = 0.1712 | x1 = 0.2787 | x1 = 0.3863 | x1 = 0.4889 | x1 = 0.5801 | x1 = 0.6819 | x1 = 0.7805 | x1 = 0.8801
303.15 K | 0.889 | 1.027 | 1.192 | 1.353 | 1.505 | 1.638 | 1.783 | 1.921 | 2.06
308.15 K | 0.85 | 0.987 | 1.15 | 1.309 | 1.459 | 1.59 | 1.735 | 1.872 | 2.009
313.15 K | 0.81 | 0.948 | 1.108 | 1.266 | 1.413 | 1.543 | 1.688 | 1.824 | 1.959

CC(N)=O + O=C1CCCCCN1
101 kPa, x2 = 0.5
Conditions | viscosity [mPa·s]
303.1 K | 66.67
313.1 K | 32.87
323.1 K | 22.69
